Legend:
Experiment in all cases: greenhouse post-emergence herbicidal test
Type in all cases: in vivo
Details in all cases: post-emergence method, application rate 0.125 kg/ha; scale 0 to 100
[1] = system: Alopecurus myosuroides (ALOMY)
Description: (§1) The culture containers used were plastic flowerpots containing loamy sand with approximately 3.0% of humus as the substrate. The seeds of the test plants were sown separately for each species.
(§2) For the pre-emergence treatment, the active ingredients, which had been suspended or emulsified in water, were applied directly after sowing by means of finely distributing nozzles. The containers were irrigated gently to promote germination and growth and subsequently covered with transparent plastic hoods until the test plants had rooted. This cover caused uniform germination of the test plants, unless this had been impaired by the active ingredients. For the post-emergence treatment, the test plants were first grown to a height of 3 to 15 cm, depending on the plant habit, and only then treated with the active ingredients which had been suspended or emulsified in water. For this purpose, the test plants were either sown directly and grown in the same containers, or they were first grown separately as seedlings and transplanted into the test containers a few days prior to treatment.
(§3) Depending on the species, the test plants were kept at 10-25° C. or 20-35° C., respectively. The test period extended over 2 to 4 weeks. During this time, the test plants were tended, and their response to the individual treatments was evaluated.
(§4) Evaluation was carried out using a scale from 0 to 100. 100 means no emergence of the test plants, or complete destruction of at least the aerial moieties, and 0 means no damage, or normal course of growth. A good herbicidal activity is given at values of 65 to 90 and a very good herbicidal activity is given at values of 90 to 100.
(§5) The test plants used in the greenhouse experiments were of the following species: […]

[2] = system: Abutilon theophrasti (ABUTH)
Description: as §1, §2, §3, §4, §5

Avena fatua (AVEFA) = system: Avena fatua (AVEFA)
Description: as §1, §2, §3, §4, §5

Compound: COC(=O)[C@@H]1C=C[C@H](NC(=O)C2(C(=O)Nc3cc(F)cc(F)c3)CC2)C1 [I.2, methyl (1S,4R)-4-{1-[(3,5-difluorophenyl)carbamoyl]cyclopropaneamido}cyclopent-2-ene-1-carboxylate]
- herbicidal activity against ALOMY [1]: very good (a very good herbicidal activity is given at values of 90 to 100)
- herbicidal activity against ABUTH [2]: good (A good herbicidal activity is given at values of 65 to 90)
- herbicidal activity against AVEFA (Avena fatua (AVEFA)): very good (a very good herbicidal activity is given at values of 90 to 100)
